# Key:
# HIF-1α protein = experiment: Western blot of bone marrow cell lysates for HIF-1α stabilization in treated mice; format: in vivo, C57Bl/6 mice; conditions: FIG. 1A
# Text: FIGS. 1A, 1B, 1C, and 1D are graphical representations showing the effect of Compound X and G-CSF on HIF-1α protein and CFC mobilization. (1A) Western blot analysis of bone marrow (BM) cell lysates from mice treated with saline (Saline), with Compound X for 3 days (X3), with G-CSF for 2 days (G2) or with both Compound X and G-CSF (G2X3) for presence of HIF-1α and β-actin. Each lane represents a different mouse. […] (1D) Time-course numbers of CFC per mL blood or per spleen for mice treated with Plerixafor with or without Compound X. Mice were treated with Plerixafor for 1 hour (P1) together with Compound X for 1, 2, 3 or 4 days (P1X1-P1X4). Data are mean±SD of 6 mice per condition. * p<0.05; ** p<0.01; *** p<0.001.
# To evaluate whether pharmacological stabilization of HIF-1α protein would enhance HSC mobilization in response to G-CSF, C57Bl/6 mice were treated with recombinant human G-CSF (rhuG-CSF) twice daily for 1-3 days together with a PHD inhibitor, Compound X, daily for 3 days. […] Mobilization of colony-forming cells (CFCs) to the blood and spleen were measured (FIG. 1B). […] To assess the optimum duration of Compound X treatment, Compound X was administered for 1-4 days and G-CSF for the last 2 days before tissue sampling (FIG. 1C).
# All procedures were approved by the animal experimentation ethics committee of the University of Queensland. […]
# [1] = tested on: hematopoietic stem and progenitor cells; experiment: Phenotypic HSCs, HSPCs and myeloid progenitors in blood, spleen and bone marrow by flow cytometry; format: in vivo, C57BL/6 mice
# Protocol: Additional HIF-α potentiating agents in the form of PHD inhibitors were tested for their ability to enhance mobilization induced by G-CSF. Compound A, Compound B or Compound C, were tested in male, 7 weeks-old C57BL/6 mice. Mice were injected twice daily sub-cutaneously with rhuG-CSF at a dose of 125 μg/kg per injection for four days. Mice were gavaged with 20 mg/kg Compound A, Compound B, Compound C or vehicle control once daily for three days beginning on day 1 of the experiment.
# At the end of treatment, blood was harvested by cardiac puncture, mice were sacrificed by cervical dislocation and spleens harvested. Femurs were removed, cleaned and the bone marrow was flushed with 1 mL PBS+10% newborn calf serum (NCS).
# The number of phenotypic hematopoietic stem and progenitor cells remaining in the bone marrow following treatment was measured by flow cytometry using antibodies specific for lineage markers (CD3, CD5, CD45R/B220, F4/80, Gr1, CD41, Ter119), Sca-1, Kit, CD48 and CD150. Similarly, the number of phenotypic hematopoietic stem cells mobilized into the blood and spleen were measured. Colony assays were also performed on blood and spleen to determine the number of colony forming cells per mL of blood and per spleen. All results are presented as mean f standard deviation with n=6 per groups. Levels of significance for differences were calculated using the Student's t-test.
# All procedures were approved by the animal experimentation ethics committee of the University of Queensland. All experiments were performed on nine to twelve-week old C57BL/6 male mice or genetically modified mice back-crossed at least 10 times into C57BL/6. Recombinant human G-CSF (Amgen, Thousand Oaks, Calif.) was injected twice daily subcutaneously at 125 μg/kg per injection for up to 4 consecutive days. Plerixafor (AMD3100 octohydrochloride, Tocris Bioscience, Bristol, UK) was injected intraperitoneally as a single 16 mg/kg dose corresponding to 10 mg/kg of AMD3100 base. Tissues were harvested 1 h after Plerixafor administration. […] Compounds H and J were administered at 60 mg/kg and Compound K was administered at 100 mg/kg. Control mice were injected with an equivalent volume of saline. At specified time-points, mice were anesthetized with isoflurane before cardiac puncture to harvest blood. Mice were then euthanized by cervical dislocation and BM and bones harvested.
# Following flushing with PBS plus 2% NCS, enriched central BM cells were pelleted at 370×g for 5 minutes at 4° C. and resuspended in CD16/CD32 hybridoma 2.4G2 supernatant to block IgGFc receptors. HSCs were stained with the biotinylated lineage antibody cocktail (CD3, CD5, B220, CD11b, Gr-1, Ter119) and biotinylated CD41 together with streptavidin (SAV)-Pacific Blue, anti-Sca-1-PECY7, anti-KIT-APC, CD48-FITC and CD150-PE as previously described (17). Data were acquired on a CyAn (Dako Cytomation) flow cytometer and analyzed following compensation with single color controls using FlowJo software (Tree Star, Ashland, Oreg.).
# [2] = Compound X added to 2 days G-CSF plus Plerixafor, P<0.01
# [3] = G-CSF 2 days together with Compound X, p<0.005
smiles,measurement,setting,value
"O=C(O)CNC(=O)c1ncc2cc(Sc3ccccc3)ccc2c1O [Compound X, [(4-Hydroxy-7-phenylsulfanyl-isoquinoline-3-carbonyl)-amino]-acetic acid]",stabilization of HIF-1α protein in bone marrow leukocytes,HIF-1α protein; Compound X daily for 3 days,stabilization of HIF-1α protein was demonstrated
same,stabilization of HIF-1α protein compared to G-CSF alone,HIF-1α protein; Compound X in combination with G-CSF,significantly increased
same,boost of mobilization of HSPCs in the blood,[1]; [2],2.5 fold
same,boost of mobilization of HSPCs in the spleen,[1]; [2],4 fold
same,boost of mobilization of phenotypic HSCs,[1]; [2],3 fold
same,number of phenotypic HSCs and HSPCs in the blood,"[1]; Compound X added to 4 days G-CSF and Plerixafor, P<0.001",dramatically increased
same,number of Lin−Sca1+Kit+ HSPCs in spleen versus G-CSF alone,[1]; [3],tripled
same,number of Lin−Sca1+Kit+ HSPCs in the blood versus G-CSF alone,[1]; [3],doubled
same,increase in number of phenotypic HSCs versus G-CSF alone,"[1]; G-CSF 2 days together with Compound X, p<0.005, FIG. 2C-D",3 fold
